Assay results as given in patent US6914045B2, “Glycopeptide antibiotics” (Wyeth Holdings Corporation, priority 2001, dated 2005).
Values after ≈ are worked out from the molar mass of the structure shown.

Columns and labels:
Assay in all cases: in vitro antibacterial evaluation, MIC by broth dilution
Assay type in all cases: cell-based
[1] = tested on: Staphylococcus sp.; conditions: broth dilution, 18 hours at 35° C.; for MIC Staphylococcus aureus (GC 1131): strain GC 1131
In short: (§1)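 MIC, the lowest antibiotic concentration preventing growth, was read across 64-0.06 μg/mL with 5×10^5 CFU/mL inoculum. Method followed NCCLS M7-A2 broth dilution using Mueller-Hinton II; Gram-positive strains covered recent methicillin-, penicillin- and/or vancomycin-resistant clinical isolates.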

[2] = tested on: Escherichia coli
In short: as §1

[3] = tested on: Enterococcus sp.; conditions: broth dilution, 18 hours at 35° C.; for MIC Enterococcus faecalis (ATCC 29212): strain ATCC 29212; for MIC Enterococcus faecalis (GC 2242): strain GC 2242; for MIC Enterococcus faecium (GC 2243): strain GC 2243; for MIC Enterococcus faecalis (GC 2691): strain GC 2691; for MIC Enterococcus faecalis (GC 3059): strain GC 3059; for MIC Enterococcus faecalis (GC 4552): strain GC 4552; for MIC Enterococcus faecalis (GC 4553): strain GC 4553; for MIC Enterococcus faecalis (GC 4554): strain GC 4554; for MIC Enterococcus faecium (GC 4556): strain GC 4556; for MIC Enterococcus faecium (GC 4557): strain GC 4557; for MIC Enterococcus avium (GC 4558): strain GC 4558; for MIC Enterococcus faecalis (GC 6189): strain GC 6189
In short: as §1

[4] = tested on: Streptococcus sp.; conditions: broth dilution, 18 hours at 35° C.; for MIC Streptococcus pneumoniae (ATCC 6301): strain ATCC 6301; for MIC Streptococcus pneumoniae (GC 1894): strain GC 1894; for MIC Streptococcus pyogenes (GC 4563): strain GC 4563; for MIC Streptococcus agalactiae (GC 4564): strain GC 4564; for MIC Streptococcus pneumoniae (GC 4565): strain GC 4565
In short: as §1

MIC Staphylococcus aureus (GC 1131) ([1]; inoculum 5×10^5 CFU/mL): 32 µg/mL (≈ 21.7 µM) | MIC Staphylococcus aureus (ATCC 29213) ([1]; strain ATCC 29213): 32 µg/mL (≈ 21.7 µM) | MIC Staphylococcus aureus (GC 1131) [1]: 32 µg/mL (≈ 21.7 µM) | MIC Staphylococcus aureus (GC 3051) ([1]; strain GC 3051): 32 µg/mL (≈ 21.7 µM) | MIC Staphylococcus aureus (GC 3053) ([1]; strain GC 3053): >64 µg/mL | MIC Staphylococcus aureus (GC 4541) ([1]; strain GC 4541): 32 µg/mL (≈ 21.7 µM) | MIC Staphylococcus aureus (GC 4542) ([1]; strain GC 4542): 32 µg/mL (≈ 21.7 µM) | MIC Staphylococcus aureus-SMITH (GC 4543) ([1]; strain GC 4543): 32 µg/mL (≈ 21.7 µM) | MIC Staphylococcus aureus (GC 4544) ([1]; strain GC 4544): 32 µg/mL (≈ 21.7 µM) | MIC Staphylococcus aureus (GC 4545) ([1]; strain GC 4545): 32 µg/mL (≈ 21.7 µM) | MIC Coagulase Negative Staphylococcus (GC 4547) ([1]; strain GC 4547): 32 µg/mL (≈ 21.7 µM) | MIC Coagulase Negative Staphylococcus (GC 4548) ([1]; strain GC 4548): 32 µg/mL (≈ 21.7 µM) | MIC Coagulase Negative Staphylococcus (GC 4549) ([1]; strain GC 4549): 16 µg/mL (≈ 10.9 µM) | MIC Coagulase Negative Staphylococcus (GC 4551) ([1]; strain GC 4551): >64 µg/mL | MIC Coagulase Negative Staphylococcus (GC 6257) ([1]; strain GC 6257): 8 µg/mL (≈ 5.43 µM) | MIC Escherichia coli (ATCC 25922) ([2]; strain ATCC 25922, 18 hours at 35° C.): >64 µg/mL | MIC Escherichia coli (GC 4559) ([2]; strain GC 4559, 18 hours at 35° C.): >64 µg/mL | MIC Escherichia coli (GC 4560) ([2]; strain GC 4560, 18 hours at 35° C.): 8 µg/mL (≈ 5.43 µM) | MIC Enterococcus faecalis (ATCC 29212) ([3]; inoculum 5×10^5 CFU/mL): >64 µg/mL | MIC Enterococcus faecalis (GC 2242) ([3]; inoculum 5×10^5 CFU/mL): > 64 µg/mL | MIC Enterococcus faecium (GC 2243) ([3]; inoculum 5×10^5 CFU/mL): >64 µg/mL | MIC Enterococcus faecalis (GC 2691) ([3]; inoculum 5×10^5 CFU/mL): >64 µg/mL | MIC Enterococcus faecalis (GC 3059) ([3]; inoculum 5×10^5 CFU/mL): >64 µg/mL | MIC Enterococcus faecalis (GC 4552) ([3]; inoculum 5×10^5 CFU/mL): >64 µg/mL | MIC Enterococcus faecalis (GC 4553) ([3]; inoculum 5×10^5 CFU/mL): >64 µg/mL | MIC Enterococcus faecalis (GC 4554) ([3]; inoculum 5×10^5 CFU/mL): >64 µg/mL | MIC Enterococcus faecium (GC 4556) ([3]; inoculum 5×10^5 CFU/mL): >64 µg/mL | MIC Enterococcus faecium (GC 4557) ([3]; inoculum 5×10^5 CFU/mL): 32 µg/mL (≈ 21.7 µM) | MIC Enterococcus avium (GC 4558) ([3]; inoculum 5×10^5 CFU/mL): >64 µg/mL | MIC Enterococcus faecalis (GC 6189) ([3]; inoculum 5×10^5 CFU/mL): >64 µg/mL | MIC Enterococcus faecalis (ATCC 29212) [3]: >64 µg/mL | MIC Enterococcus faecalis (GC 2242) [3]: >64 µg/mL | MIC Enterococcus faecium (GC 2243) [3]: >64 µg/mL | MIC Enterococcus faecalis (GC 2691) [3]: >64 µg/mL | MIC Enterococcus faecalis (GC 3059) [3]: >64 µg/mL | MIC Enterococcus faecalis (GC 4552) [3]: >64 µg/mL | MIC Enterococcus faecalis (GC 4553) [3]: >64 µg/mL | MIC Enterococcus faecalis (GC 4554) [3]: >64 µg/mL | MIC Enterococcus faecium (GC 4556) [3]: >64 µg/mL | MIC Enterococcus faecium (GC 4557) [3]: 32 µg/mL (≈ 21.7 µM) | MIC Enterococcus avium (GC 4558) [3]: >64 µg/mL | MIC Enterococcus faecalis (GC 6189) [3]: >64 µg/mL | MIC Streptococcus pneumoniae (ATCC 6301) ([4]; inoculum 5×10^5 CFU/mL): 8 µg/mL (≈ 5.43 µM) | MIC Streptococcus pneumoniae (GC 1894) ([4]; inoculum 5×10^5 CFU/mL): 8 µg/mL (≈ 5.43 µM) | MIC Streptococcus pyogenes (GC 4563) ([4]; inoculum 5×10^5 CFU/mL): 16 µg/mL (≈ 10.9 µM) | MIC Streptococcus agalactiae (GC 4564) ([4]; inoculum 5×10^5 CFU/mL): 32 µg/mL (≈ 21.7 µM) | MIC Streptococcus pneumoniae (GC 4565) ([4]; inoculum 5×10^5 CFU/mL): 8 µg/mL (≈ 5.43 µM) | MIC Streptococcus pneumoniae (ATCC 6301) [4]: 8 µg/mL (≈ 5.43 µM) | MIC Streptococcus pneumoniae (GC 1894) [4]: 8 µg/mL (≈ 5.43 µM) | MIC Streptococcus pyogenes (GC 4563) [4]: 16 µg/mL (≈ 10.9 µM) | MIC Streptococcus agalactiae (GC 4564) [4]: 32 µg/mL (≈ 21.7 µM) | MIC Streptococcus pneumoniae (GC 4565) [4]: 8 µg/mL (≈ 5.43 µM)
SMILES: COc1cc(C2OCC3OC(OC4C(CO)OC(Oc5ccc(CC6NC(=O)C(C(C)c7ccccc7)NC(=O)CNC(=O)C(CO)NC(=O)C(C(O)C7CNC(=N)N7C7OC(CO)C(O)C(O)C7O)NC(=O)C(C(O)C7CNC(=N)N7)NC6=O)cc5)C(O)C4O)C(O)C(O)C3O2)cc([N+](=O)[O-])c1O (centres unmarked) [Example 169]
MIC Staphylococcus haemolyticus (GC 4546) ([1]; strain GC 4546): 32 µg/mL (≈ 21.7 µM)
